Experimental data as given in ChEMBL document CHEMBL4806963, “Antagonistic peptides for frizzled-1 and frizzled-2” (2013).
The source made the active and inactive calls. No cut-off for these calls is given here. Where a SMILES comes first, the peptide text is derived from it. Bridges are numbered along the chain shown (N, C = ends).

Columns and labels:
[1] = biological target: Frizzled-1 (Rattus norvegicus) (UniProt Q08463); assay: Agonist activity at rat frizzled-1 expressed in human HEK293superTOP flash cells by luciferase reporter gene assay; format: cell-based; details: HEK293
[2] = biological target: Frizzled-2 (Rattus norvegicus) (UniProt Q08464); assay: Agonist activity at rat frizzled-2 expressed in human HEK293superTOP flash cells by luciferase reporter gene assay; format: cell-based; details: HEK293
[3] = biological target: Frizzled-1 (Rattus norvegicus) (UniProt Q08463); assay: Antagonist activity at Wnt3a-stimulated rat frizzled-1 expressed in human HEK293superTOP flash cells at 10 nM incubated for 24 hrs by luciferase reporter gene assay relative to control; format: cell-based; details: HEK293, filed as antagonist
[4] = biological target: Frizzled-2 (Rattus norvegicus) (UniProt Q08464); assay: Antagonist activity at Wnt3a-stimulated rat frizzled-2 expressed in human HEK293superTOP flash cells at 10 nM incubated for 24 hrs by luciferase reporter gene assay relative to control; format: cell-based; details: HEK293, filed as antagonist
[5] = biological target: Frizzled-1 (Rattus norvegicus) (UniProt Q08463); assay: Antagonist activity at Wnt3a-stimulated rat frizzled-1 expressed in CHO cells incubated for 24 hrs by luciferase reporter gene assay relative to control; format: cell-based; details: filed as antagonist, concentration not given here
[6] = biological target: Frizzled-2 (Rattus norvegicus) (UniProt Q08464); assay: Antagonist activity at Wnt3a-stimulated rat frizzled-2 expressed in CHO cells incubated for 24 hrs by luciferase reporter gene assay relative to control; format: cell-based; details: filed as antagonist, concentration not given here
[7] = biological target: Frizzled-1 (Rattus norvegicus) (UniProt Q08463); assay: Antagonist activity at Wnt3a-stimulated rat frizzled-1 expressed in African green monkey COS7 cells incubated for 24 hrs by luciferase reporter gene assay relative to control; format: cell-based; details: filed as antagonist, concentration not given here
[8] = biological target: Frizzled-2 (Rattus norvegicus) (UniProt Q08464); assay: Antagonist activity at Wnt3a-stimulated rat frizzled-2 expressed in African green monkey COS7 cells incubated for 24 hrs by luciferase reporter gene assay relative to control; format: cell-based; details: filed as antagonist, concentration not given here
[9] = biological target: Frizzled-1 (Rattus norvegicus) (UniProt Q08463); assay: Agonist activity at rat frizzled-1 expressed in CHO cells by luciferase reporter gene assay; format: cell-based
[10] = biological target: Frizzled-2 (Rattus norvegicus) (UniProt Q08464); assay: Agonist activity at rat frizzled-2 expressed in CHO cells by luciferase reporter gene assay; format: cell-based
[11] = biological target: Frizzled-1 (Rattus norvegicus) (UniProt Q08463); assay: Agonist activity at rat frizzled-1 expressed in African green monkey COS7 cells by luciferase reporter gene assay; format: cell-based
[12] = biological target: Frizzled-2 (Rattus norvegicus) (UniProt Q08464); assay: Agonist activity at rat frizzled-2 expressed in African green monkey COS7 cells by luciferase reporter gene assay; format: cell-based
Frizzled-1 = Frizzled-1 (Rattus norvegicus, UniProt Q08463); assay: Antagonist activity at Wnt3a-stimulated rat frizzled-1 expressed in human HEK293superTOP flash cells incubated for 24 hrs by luciferase reporter gene assay; format: cell-based, HEK293
Frizzled-2 = Frizzled-2 (Rattus norvegicus, UniProt Q08464); assay: Antagonist activity at Wnt3a-stimulated rat frizzled-2 expressed in human HEK293superTOP flash cells incubated for 24 hrs by luciferase reporter gene assay; format: cell-based, HEK293
[13] = biological target: T1, Frizzled-4 (Homo sapiens) (UniProt Q9ULV1); assay: Agonist activity at frizzled-4 (unknown origin) expressed in human HEK293superTOP flash cells by luciferase reporter gene assay; format: functional, cell-based; details: HEK293
T1 sequence (whole entry): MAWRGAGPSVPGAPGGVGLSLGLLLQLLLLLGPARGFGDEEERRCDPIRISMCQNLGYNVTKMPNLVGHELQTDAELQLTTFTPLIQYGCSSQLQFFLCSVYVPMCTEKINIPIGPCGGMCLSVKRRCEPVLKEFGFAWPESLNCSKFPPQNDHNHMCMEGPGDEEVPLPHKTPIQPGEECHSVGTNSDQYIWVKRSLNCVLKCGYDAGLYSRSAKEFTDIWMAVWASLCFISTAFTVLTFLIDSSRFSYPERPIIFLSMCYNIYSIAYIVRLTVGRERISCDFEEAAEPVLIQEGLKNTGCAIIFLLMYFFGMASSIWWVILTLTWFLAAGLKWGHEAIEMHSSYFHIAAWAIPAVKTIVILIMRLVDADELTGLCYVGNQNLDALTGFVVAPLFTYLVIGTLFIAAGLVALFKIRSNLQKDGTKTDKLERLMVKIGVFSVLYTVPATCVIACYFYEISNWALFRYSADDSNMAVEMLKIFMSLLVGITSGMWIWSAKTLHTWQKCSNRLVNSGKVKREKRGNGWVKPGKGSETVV

[14] = biological target: Frizzled-5 (Homo sapiens) (UniProt Q13467); assay: Agonist activity at frizzled-5 (unknown origin) expressed in human HEK293superTOP flash cells by luciferase reporter gene assay; format: functional, cell-based; details: HEK293
[15] = biological target: Frizzled-2 (Homo sapiens) (UniProt Q14332); assay: Antagonist activity at Wnt3a-stimulated frizzled-2 (unknown origin) expressed in human HEK293superTOP flash cells incubated for 24 hrs by luciferase reporter gene assay; format: functional, cell-based; details: HEK293
[16] = biological target: Frizzled-1 (Homo sapiens) (UniProt Q9UP38); assay: Antagonist activity at Wnt3a-stimulated frizzled-1 (unknown origin) expressed in human HEK293superTOP flash cells incubated for 24 hrs by luciferase reporter gene assay; format: functional, cell-based; details: HEK293
[17] = biological target: Frizzled-2 (Homo sapiens) (UniProt Q14332); assay: Agonist activity at frizzled-2 (unknown origin) expressed in human HEK293superTOP flash cells by luciferase reporter gene assay; format: functional, cell-based; details: HEK293
[18] = biological target: Frizzled-1 (Homo sapiens) (UniProt Q9UP38); assay: Agonist activity at frizzled-1 (unknown origin) expressed in human HEK293superTOP flash cells by luciferase reporter gene assay; format: functional, cell-based; details: HEK293

Frizzled-1 (Rattus norvegicus), sequence (Q08463 whole entry): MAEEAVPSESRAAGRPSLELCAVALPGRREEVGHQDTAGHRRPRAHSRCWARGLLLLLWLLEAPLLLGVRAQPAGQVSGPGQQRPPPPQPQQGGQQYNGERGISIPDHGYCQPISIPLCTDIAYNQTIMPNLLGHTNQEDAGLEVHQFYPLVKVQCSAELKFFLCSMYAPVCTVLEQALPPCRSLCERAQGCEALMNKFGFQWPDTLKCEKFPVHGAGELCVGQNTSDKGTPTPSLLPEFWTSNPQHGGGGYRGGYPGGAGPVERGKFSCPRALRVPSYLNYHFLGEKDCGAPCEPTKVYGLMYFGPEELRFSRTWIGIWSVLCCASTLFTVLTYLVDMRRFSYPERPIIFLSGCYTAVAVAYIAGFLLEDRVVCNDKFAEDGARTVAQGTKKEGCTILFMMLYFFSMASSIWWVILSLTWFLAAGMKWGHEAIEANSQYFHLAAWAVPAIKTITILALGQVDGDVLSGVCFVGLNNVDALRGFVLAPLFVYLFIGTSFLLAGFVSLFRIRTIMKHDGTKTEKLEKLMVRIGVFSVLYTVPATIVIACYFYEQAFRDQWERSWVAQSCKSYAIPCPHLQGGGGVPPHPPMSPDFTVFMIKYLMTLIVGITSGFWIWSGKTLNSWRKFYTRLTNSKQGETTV
Frizzled-1 (Homo sapiens), sequence (Q9UP38 70-647 limits assumed): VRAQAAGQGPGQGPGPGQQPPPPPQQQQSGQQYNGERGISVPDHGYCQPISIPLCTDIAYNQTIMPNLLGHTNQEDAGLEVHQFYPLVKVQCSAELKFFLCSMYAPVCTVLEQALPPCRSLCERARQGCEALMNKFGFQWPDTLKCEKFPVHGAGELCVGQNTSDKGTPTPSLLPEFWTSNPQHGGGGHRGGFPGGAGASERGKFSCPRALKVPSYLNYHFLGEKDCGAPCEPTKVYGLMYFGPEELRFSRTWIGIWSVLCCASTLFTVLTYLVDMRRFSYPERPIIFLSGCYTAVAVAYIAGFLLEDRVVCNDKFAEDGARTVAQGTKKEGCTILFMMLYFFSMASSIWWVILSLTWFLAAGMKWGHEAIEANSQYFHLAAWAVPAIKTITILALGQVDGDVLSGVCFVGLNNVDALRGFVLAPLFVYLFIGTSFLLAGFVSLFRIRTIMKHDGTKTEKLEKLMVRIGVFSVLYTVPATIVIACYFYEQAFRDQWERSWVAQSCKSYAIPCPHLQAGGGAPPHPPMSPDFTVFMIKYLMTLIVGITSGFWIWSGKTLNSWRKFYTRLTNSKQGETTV
Frizzled-2 (Homo sapiens), sequence (Q14332 24-565 limits assumed): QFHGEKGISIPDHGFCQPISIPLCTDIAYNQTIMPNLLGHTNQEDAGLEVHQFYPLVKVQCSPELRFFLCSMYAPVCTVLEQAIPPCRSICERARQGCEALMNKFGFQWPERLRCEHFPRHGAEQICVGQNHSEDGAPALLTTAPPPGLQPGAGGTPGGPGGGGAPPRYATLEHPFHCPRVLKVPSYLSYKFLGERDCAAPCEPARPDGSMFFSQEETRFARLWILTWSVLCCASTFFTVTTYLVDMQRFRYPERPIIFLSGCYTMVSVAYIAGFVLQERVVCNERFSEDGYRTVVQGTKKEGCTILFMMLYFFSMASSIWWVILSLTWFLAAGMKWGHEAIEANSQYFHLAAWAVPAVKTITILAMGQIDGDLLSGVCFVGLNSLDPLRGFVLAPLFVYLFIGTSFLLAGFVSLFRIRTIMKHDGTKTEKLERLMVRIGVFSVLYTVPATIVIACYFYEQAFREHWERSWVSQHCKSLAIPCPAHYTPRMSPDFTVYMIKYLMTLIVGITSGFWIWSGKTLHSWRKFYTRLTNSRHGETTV
Frizzled-2 (Rattus norvegicus), sequence (Q08464 29-570 limits assumed): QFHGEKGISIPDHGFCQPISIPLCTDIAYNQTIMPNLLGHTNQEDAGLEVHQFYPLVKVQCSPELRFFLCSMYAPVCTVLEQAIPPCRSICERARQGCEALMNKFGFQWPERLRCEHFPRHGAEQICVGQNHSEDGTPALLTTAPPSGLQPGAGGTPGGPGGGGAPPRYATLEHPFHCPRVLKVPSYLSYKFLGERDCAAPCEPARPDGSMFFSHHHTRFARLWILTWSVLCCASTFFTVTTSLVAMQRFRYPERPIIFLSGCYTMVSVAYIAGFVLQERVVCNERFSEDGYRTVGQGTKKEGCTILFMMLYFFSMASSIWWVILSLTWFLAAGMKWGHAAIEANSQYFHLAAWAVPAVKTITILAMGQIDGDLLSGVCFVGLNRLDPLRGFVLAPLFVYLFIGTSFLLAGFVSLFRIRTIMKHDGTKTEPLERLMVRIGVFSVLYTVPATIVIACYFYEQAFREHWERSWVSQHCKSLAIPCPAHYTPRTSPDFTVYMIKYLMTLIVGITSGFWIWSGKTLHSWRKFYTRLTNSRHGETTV
Frizzled-1, sequence (Q08463 whole entry): as the sequence (Q08463 whole entry) above
Frizzled-5 (Homo sapiens), sequence (Q13467 whole entry): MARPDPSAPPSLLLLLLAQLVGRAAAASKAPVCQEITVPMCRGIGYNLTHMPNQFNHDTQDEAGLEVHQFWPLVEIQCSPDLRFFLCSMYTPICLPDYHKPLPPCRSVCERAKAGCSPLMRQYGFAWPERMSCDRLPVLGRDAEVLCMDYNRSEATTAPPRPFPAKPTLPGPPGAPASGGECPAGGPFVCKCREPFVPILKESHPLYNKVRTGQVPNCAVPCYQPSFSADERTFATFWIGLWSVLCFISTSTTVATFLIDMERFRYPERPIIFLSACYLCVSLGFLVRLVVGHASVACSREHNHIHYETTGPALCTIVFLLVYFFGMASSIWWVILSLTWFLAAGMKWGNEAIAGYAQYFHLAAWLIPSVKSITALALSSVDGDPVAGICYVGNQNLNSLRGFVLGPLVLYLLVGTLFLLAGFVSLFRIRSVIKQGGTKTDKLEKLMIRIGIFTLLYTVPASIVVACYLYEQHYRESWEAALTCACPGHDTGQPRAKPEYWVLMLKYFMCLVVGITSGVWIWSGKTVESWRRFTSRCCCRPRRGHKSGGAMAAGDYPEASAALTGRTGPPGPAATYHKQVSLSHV
Frizzled-2, sequence (Q08464 whole entry): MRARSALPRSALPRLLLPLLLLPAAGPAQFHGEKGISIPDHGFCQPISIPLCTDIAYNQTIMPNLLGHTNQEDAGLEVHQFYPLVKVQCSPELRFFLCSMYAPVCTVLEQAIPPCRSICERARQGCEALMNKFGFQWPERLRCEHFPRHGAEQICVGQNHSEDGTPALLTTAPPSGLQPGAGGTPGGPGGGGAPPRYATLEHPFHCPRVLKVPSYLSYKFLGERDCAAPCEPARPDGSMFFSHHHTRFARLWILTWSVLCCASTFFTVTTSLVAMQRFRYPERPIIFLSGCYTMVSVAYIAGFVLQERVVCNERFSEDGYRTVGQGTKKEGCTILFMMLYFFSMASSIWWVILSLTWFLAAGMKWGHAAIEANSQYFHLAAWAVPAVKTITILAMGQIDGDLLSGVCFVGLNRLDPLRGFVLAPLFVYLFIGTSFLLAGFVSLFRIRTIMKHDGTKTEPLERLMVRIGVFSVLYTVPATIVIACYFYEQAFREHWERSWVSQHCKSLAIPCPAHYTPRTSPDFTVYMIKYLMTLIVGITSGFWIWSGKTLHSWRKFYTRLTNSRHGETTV

Row | Compound | Activity [1] | Activity [2] | inhibition [3] [%] | inhibition [4] [%] | inhibition [5] [%] | inhibition [6] [%] | inhibition [7] [%] | inhibition [8] [%] | Activity [9] | Activity [10] | Activity [11] | Activity [12] | IC50 (Frizzled-1) [µM] | IC50 (Frizzled-2) [µM] | Activity [13] | Activity [14] | inhibition [15] | inhibition [16] | Activity [17] | Activity [18]
1 | CSCC[C@@H]1NC(=O)CNC(=O)[C@H](CCC(=O)O)NC(=O)[C@H](CO)NC(=O)[C@H]([C@@H](C)O)NC(=O)[C@H](CCCCN)NC(=O)[C@H](CC(N)=O)NC(=O)[C@@H](NC(C)=O)CSSC[C@@H](C(=O)N[C@@H](CCC(=O)O)C(=O)N[C@@H](CC(C)C)C(N)=O)NC(=O)CNC(=O)[C@H](CC(=O)O)NC1=O (Ac-CNKTSEGMDGCEL-NH2; disulfide 1-11) |  |  |  |  |  |  |  |  |  |  |  |  |  |  | inactive | inactive |  |  |  | 
2 | Ac-GDWEWGECSDNI-NH2 |  |  |  |  |  |  |  |  |  |  |  |  |  |  |  |  | inactive | inactive | inactive | inactive

The remaining lines, values ahead:

Row | Activity [1] | Activity [2] | inhibition [3] [%] | inhibition [4] [%] | inhibition [5] [%] | inhibition [6] [%] | inhibition [7] [%] | inhibition [8] [%] | Activity [9] | Activity [10] | Activity [11] | Activity [12] | IC50 (Frizzled-1) [µM] | IC50 (Frizzled-2) [µM] | Activity [13] | Activity [14] | inhibition [15] | inhibition [16] | Activity [17] | Activity [18] | Compound
3 | inactive | inactive | 100 | 100 | 100 | 100 | 100 | 100 | inactive | inactive | inactive | inactive | 2.06 | 2.11 |  |  |  |  |  |  | CC(=O)NCC(=O)N[C@@H](CO)C(=O)N[C@@H](CS)C(=O)N[C@@H](CO)C(=O)N[C@@H](CC(C)C)C(=O)N[C@@H](CCCCN)C(=O)N[C@H](C(=O)N[C@@H](CS)C(=O)N[C@@H](Cc1c[nH]c2ccccc12)C(=O)N[C@@H](CC(C)C)C(=O)N[C@@H](CCC(N)=O)C(=O)N[C@@H](CC(C)C)C(=O)N[C@@H](C)C(=O)N[C@@H](CC(=O)O)C(N)=O)[C@@H](C)O (Ac-GSCSLKTCWLQLAD-NH2)
4 | inactive | inactive | 100 | 100 | 100 | 100 | 100 | 100 | inactive | inactive | inactive | inactive |  |  |  |  |  |  |  |  | CC[C@H](C)[C@H](NC(=O)CNC(C)=O)C(=O)N[C@@H](CCCCN)C(=O)N[C@@H](CCC(=O)O)C(=O)N[C@@H](CS)C(=O)N[C@@H](CCC(N)=O)C(=O)N[C@@H](Cc1ccc(O)cc1)C(=O)N[C@@H](CCC(N)=O)C(=O)N[C@@H](Cc1ccccc1)C(=O)N[C@@H](CCCNC(=N)N)C(=O)N[C@@H](Cc1c[nH]cn1)C(=O)N[C@@H](CCCNC(=N)N)C(=O)N[C@@H](CCCNC(=N)N)C(=O)N[C@@H](Cc1c[nH]c2ccccc12)C(=O)N[C@@H](CC(N)=O)C(=O)N[C@@H](CS)C(=O)N[C@@H](CO)C(=O)N[C@H](C(=O)N[C@H](C(=O)N[C@@H](CC(=O)O)C(N)=O)C(C)C)[C@@H](C)O (Ac-GIKECQYQFRHRRWNCSTVD-NH2)
5 |  |  |  |  |  |  |  |  |  |  |  |  |  |  |  |  | inactive | inactive | inactive | inactive | CSCC[C@H](NC(=O)CNC(=O)[C@H](CO)NC(=O)[C@H](CCCCN)NC(=O)[C@H](CC(N)=O)NC(=O)[C@H](CS)NC(C)=O)C(=O)N[C@@H](CC(=O)O)C(=O)NCC(=O)N[C@@H](CS)C(=O)N[C@@H](CCC(=O)O)C(=O)N[C@@H](CC(C)C)C(N)=O (Ac-CNKSGMDGCEL-NH2)
